# Calls of active or inactive are those of the source. No cut-off for these calls is given here.
# How the values were obtained:
# [1] = Toxicity in C57BL/6J mouse implanted with mouse MC38 cells assessed as body weight change at 40 to 160 mg/kg, IG qd for 7 days; type: organism-based; settings: in vivo, po, 168 h, dose 40-160 mg/kg, time 7 day
# [2] = Toxicity in C57BL/6J mouse implanted with mouse MC38 cells assessed as change in RBC count at 40 to 160 mg/kg, IG qd for 7 days; type: organism-based; settings: in vivo, po, 168 h, dose 40-160 mg/kg, time 7 day
# [3] = Toxicity in C57BL/6J mouse implanted with mouse MC38 cells assessed as change in PDW count at 40 to 160 mg/kg, IG qd for 7 days; type: organism-based; settings: in vivo, po, 168 h, dose 40-160 mg/kg, time 7 day
# [4] = Cmax in Sprague-Dawley rat at 10 mg/kg, ip measured for 24 hrs by LC-MS/MS analysis; type: ADME, organism-based; settings: in vivo
# [5] = Toxicity in C57BL/6J mouse implanted with mouse MC38 cells assessed as spleen weight ratio at 40 to 160 mg/kg, IG qd for 7 days; type: organism-based; settings: in vivo, po, 168 h, dose 40-160 mg/kg, time 7 day
# [6] = Toxicity in C57BL/6J mouse implanted with mouse MC38 cells assessed as injury in spleen at 5 to 20 mg/kg, ip qd for 13 days by H and E staining based analysis; type: organism-based; settings: in vivo, 312 h, dose 5-20 mg/kg, time 13 day
# [7] = AUC (0 to infinity) in Sprague-Dawley rat at 10 mg/kg, ip measured for 24 hrs by LC-MS/MS analysis; type: ADME, organism-based; settings: in vivo
# [8] = tested on: MC-38; test: Antitumor activity against mouse MC38 cells implanted in C57BL/6J mouse at 5 to 20 mg/kg, ip qd; type: functional, organism-based; settings: dose 5-20 mg/kg, time 13.0 day
# [9] = Cytotoxicity against human L02 cells measured after 48 hrs by MTT assay; type: toxicity, cell-based
# [10] = Toxicity in C57BL/6J mouse implanted with mouse MC38 cells assessed as change in body weight at 5 to 20 mg/kg, ip qd for 13 days; type: organism-based; settings: in vivo, 312 h, dose 5-20 mg/kg, time 13 day
# [11] = Drug uptake in mouse MC38 cells incubated for 48 hrs by LC-MS/MS analysis; type: ADME, cell-based; settings: mc-38, 48 h, dose 1-10 µM
# [12] = Toxicity in C57BL/6J mouse implanted with mouse MC38 cells assessed as change in HGB count at 40 to 160 mg/kg, IG qd for 7 days; type: organism-based; settings: in vivo, po, 168 h, dose 40-160 mg/kg, time 7 day
# [13] = Toxicity in C57BL/6J mouse implanted with mouse MC38 cells assessed as change in MPV count at 40 to 160 mg/kg, IG qd for 7 days; type: organism-based; settings: in vivo, po, 168 h, dose 40-160 mg/kg, time 7 day
# [14] = tested on: MC-38; test: Antitumor activity against mouse MC38 cells implanted in C57BL/6J mouse administered intraperitoneally once a day for 13 days; type: functional, cell-based; settings: dose 5-20 mg/kg, route ip, time 13.0 day
# [15] = Toxicity in C57BL/6J mouse implanted with mouse MC38 cells assessed as change in MCHC count at 40 to 160 mg/kg, IG qd for 7 days; type: organism-based; settings: in vivo, po, 168 h, dose 40-160 mg/kg, time 7 day
# [16] = Half life in Sprague-Dawley rat at 1 mg/kg, iv measured for 24 hrs by LC-MS/MS analysis; type: ADME, organism-based; settings: in vivo
# [17] = Toxicity in C57BL/6J mouse implanted with mouse MC38 cells assessed as change in serum urea level at 5 to 20 mg/kg, ip qd for 13 days; type: organism-based; settings: in vivo, 312 h, dose 5-20 mg/kg, time 13 day
# [18] = Cytotoxicity against HEK293T cells measured after 48 hrs by MTT assay; type: toxicity, cell-based, HEK-293T; settings: human
# [19] = Tmax in Sprague-Dawley rat at 10 mg/kg, ip measured for 24 hrs by LC-MS/MS analysis; type: ADME, organism-based; settings: in vivo
# [20] = Tmax in Sprague-Dawley rat at 20 mg/kg, po measured for 24 hrs by LC-MS/MS analysis; type: ADME, organism-based; settings: in vivo
# [21] = AUC (0 to 24 hrs) in Sprague-Dawley rat at 10 mg/kg, ip measured for 24 hrs by LC-MS/MS analysis; type: ADME, organism-based; settings: in vivo
# [22] = Toxicity in C57BL/6J mouse implanted with mouse MC38 cells assessed as change in MCH count at 40 to 160 mg/kg, IG qd for 7 days; type: organism-based; settings: in vivo, po, 168 h, dose 40-160 mg/kg, time 7 day
# [23] = Toxicity in C57BL/6J mouse implanted with mouse MC38 cells assessed as change in serum ALT level at 5 to 20 mg/kg, ip qd for 13 days; type: organism-based; settings: in vivo, 312 h, dose 5-20 mg/kg, time 13 day
# [24] = Toxicity in C57BL/6J mouse implanted with mouse MC38 cells assessed as change in ALT level at 40 to 160 mg/kg, IG qd for 7 days; type: organism-based; settings: in vivo, po, 168 h, dose 40-160 mg/kg, time 7 day
# [25] = Toxicity in C57BL/6J mouse implanted with mouse MC38 cells assessed as injury in heart at 5 to 20 mg/kg, ip qd for 13 days by H and E staining based analysis; type: organism-based; settings: in vivo, 312 h, dose 5-20 mg/kg, time 13 day
# [26] = Toxicity in C57BL/6J mouse implanted with mouse MC38 cells assessed as change in PCT count at 40 to 160 mg/kg, IG qd for 7 days; type: organism-based; settings: in vivo, po, 168 h, dose 40-160 mg/kg, time 7 day
# [27] = Toxicity in C57BL/6J mouse implanted with mouse MC38 cells assessed as change in liver index at 5 to 20 mg/kg, ip qd for 13 days; type: organism-based; settings: in vivo, 312 h, dose 5-20 mg/kg, time 13 day
# [28] = Toxicity in C57BL/6J mouse implanted with mouse MC38 cells assessed as brain weight ratio at 40 to 160 mg/kg, IG qd for 7 days; type: organism-based; settings: in vivo, po, 168 h, dose 40-160 mg/kg, time 7 day
# [29] = tested on: MC-38; test: Antitumor activity against mouse MC38 cells implanted in C57BL/6J mouse assessed as increase in ratio of CD8+/CD4+ T cells at 20 mg/kg, ip qd for 13 days by flow cytometry; type: functional, organism-based; settings: time 13.0 day
# [30] = Toxicity in C57BL/6J mouse implanted with mouse MC38 cells assessed as change in brain index at 5 to 20 mg/kg, ip qd for 13 days; type: organism-based; settings: in vivo, 312 h, dose 5-20 mg/kg, time 13 day
# [31] = AUC (0 to infinity) in Sprague-Dawley rat at 1 mg/kg, iv measured for 24 hrs by LC-MS/MS analysis; type: ADME, organism-based; settings: in vivo
# [32] = Cmax in Sprague-Dawley rat at 20 mg/kg, po measured for 24 hrs by LC-MS/MS analysis; type: ADME, organism-based; settings: in vivo
# [33] = Toxicity in C57BL/6J mouse implanted with mouse MC38 cells assessed as liver weight ratio at 40 to 160 mg/kg, IG qd for 7 days; type: organism-based; settings: in vivo, po, 168 h, dose 40-160 mg/kg, time 7 day
# [34] = tested on: MC-38; test: Antitumor activity against mouse MC38 cells implanted in C57BL/6J mouse assessed as tumor growth inhibition at 160 mg/kg, IG qd; type: functional, organism-based; settings: time 7.0 day
# [35] = tested on: MC-38; test: Antitumor activity against mouse MC38 cells implanted in C57BL/6J mouse at 5 to 20 mg/kg, ip qd for 13 days relative to control; type: functional; settings: dose 5-20 mg/kg, time 13 day
# [36] = Cytotoxicity against human HaCaT cells measured after 48 hrs by MTT assay; type: toxicity, cell-based
# [37] = tested on: PBMC; test: Inhibition of apoptosis in human PBMC cells assessed as reduction in PD-L1-induced proportion of terminal phase apoptotic cells by flow cytometry; type: functional, cell-based
# [38] = Clearance in Sprague-Dawley rat at 1 mg/kg, iv measured for 24 hrs by LC-MS/MS analysis; type: ADME, organism-based; settings: in vivo
# [39] = Toxicity in C57BL/6J mouse implanted with mouse MC38 cells assessed as drug tolerance at 5 to 20 mg/kg, ip qd for 13 days; type: organism-based; settings: in vivo, 312 h, dose 5-20 mg/kg, time 13 day
# [40] = Toxicity in C57BL/6J mouse implanted with mouse MC38 cells assessed as change in ureas level at 40 to 160 mg/kg, IG qd for 7 days; type: organism-based; settings: in vivo, po, 168 h, dose 40-160 mg/kg, time 7 day
smiles,measurement,setting,value
C[C@H](N)C(=O)N1Cc2ccc(-c3cccc(-c4ccc5c(c4)OCCO5)c3Cl)cc2C1.Cl,Activity,[1],Non-toxic
same,Activity,[2],Non-toxic
same,Activity,[3],Non-toxic
same,Cmax,[4],412 ng/mL
same,Activity,[5],Non-toxic
same,Activity,[6],Non-toxic
same,AUC(0-inf),[7],1620 ng·h/mL
same,Activity,[8],Time-dependent-effect
same,IC50 at 48 h,[9],> 10 µM
same,Activity,[10],Non-toxic
same,Drug uptake,[11],Dose-dependent-effect
same,Activity,[12],Non-toxic
same,Activity,[13],Non-toxic
same,Activity,[14],Dose-dependent-effect
same,Activity,[15],Non-toxic
same,half-life,[16],1.61 h
same,Activity,[17],Non-toxic
same,IC50 at 48 h,[18],> 10 µM
same,Tmax,[19],0.42 h
same,Tmax,[20],2.5 h
same,AUC(0-t) at 24 h,[21],1010 ng·h/mL
same,Activity,[22],Non-toxic
same,Activity,[23],Non-toxic
same,Activity,[24],Non-toxic
same,Activity,[25],Non-toxic
same,Activity,[26],Non-toxic
same,Activity,[27],Non-toxic
same,Activity,[28],Non-toxic
same,Activity,[29],Active
same,Activity,[30],Non-toxic
same,AUC(0-inf),[31],191 ng·h/mL
same,Cmax,[32],151 ng/mL
same,Activity,[33],Non-toxic
same,inhibition,[34],Time-dependent-effect
same,TGI,[35],52.8%
same,IC50 at 48 h,[36],> 100 µM
same,inhibition,[37],Active
same,clearance,[38],87.7 mL/min/kg
same,Activity,[39],Non-toxic
same,Activity,[40],Non-toxic
